Experimental data published in ChEMBL document CHEMBL1151749, “Discovery of quinazolines as histamine H4 receptor inverse agonists using a scaffold hopping approach” (J Med Chem, 2008).

Experiments:
Histamine H4 receptor [1] = molecular target: T1, Histamine H4 receptor (Homo sapiens, UniProt Q9H3N8); test: Displacement of [3H]histamine from human histamine H4 receptor expressed in HEK cells; type: cell-based, HEK293
Histamine H1 receptor = Histamine H1 receptor (Homo sapiens, UniProt P35367); test: Displacement of [3H]mepyramine from human histamine H1 receptor expressed in NIH3T3 cells; type: cell-based
Histamine H4 receptor [2] = molecular target: Histamine H4 receptor (Rattus norvegicus, UniProt Q91ZY1); test: Binding affinity to rat histamine H4 receptor
Histamine H4 receptor [3] = molecular target: T1, Histamine H4 receptor; test: Inverse agonist activity at human histamine H4 receptor expressed in HEK293T cells by CRE-beta-galactosidase assay; type: functional, cell-based, HEK-293T

T1 sequence (Q9H3N8 whole entry): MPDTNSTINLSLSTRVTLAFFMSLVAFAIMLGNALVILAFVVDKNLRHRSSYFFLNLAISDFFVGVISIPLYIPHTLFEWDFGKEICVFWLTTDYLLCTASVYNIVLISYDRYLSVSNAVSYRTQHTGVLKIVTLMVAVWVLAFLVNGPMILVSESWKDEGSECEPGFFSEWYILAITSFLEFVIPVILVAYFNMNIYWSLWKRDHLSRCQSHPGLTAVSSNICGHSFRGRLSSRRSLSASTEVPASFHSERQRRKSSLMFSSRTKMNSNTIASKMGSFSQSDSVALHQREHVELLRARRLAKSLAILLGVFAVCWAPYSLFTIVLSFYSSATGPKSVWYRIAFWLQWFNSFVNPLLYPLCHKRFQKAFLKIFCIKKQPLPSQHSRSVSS
Sequence of Histamine H4 receptor (Rattus norvegicus, UniProt Q91ZY1) (Q91ZY1 whole entry): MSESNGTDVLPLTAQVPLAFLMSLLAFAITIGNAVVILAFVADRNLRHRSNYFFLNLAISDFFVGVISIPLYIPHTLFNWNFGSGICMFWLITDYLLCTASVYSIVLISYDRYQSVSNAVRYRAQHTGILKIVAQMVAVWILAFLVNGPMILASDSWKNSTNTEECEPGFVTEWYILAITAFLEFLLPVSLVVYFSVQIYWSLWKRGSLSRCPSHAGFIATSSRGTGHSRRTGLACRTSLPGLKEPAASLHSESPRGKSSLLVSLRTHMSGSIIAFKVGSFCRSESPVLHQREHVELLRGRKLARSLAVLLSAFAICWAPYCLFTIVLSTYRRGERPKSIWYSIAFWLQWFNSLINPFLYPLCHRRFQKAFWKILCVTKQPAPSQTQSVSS
Sequence of Histamine H1 receptor (P35367 whole entry): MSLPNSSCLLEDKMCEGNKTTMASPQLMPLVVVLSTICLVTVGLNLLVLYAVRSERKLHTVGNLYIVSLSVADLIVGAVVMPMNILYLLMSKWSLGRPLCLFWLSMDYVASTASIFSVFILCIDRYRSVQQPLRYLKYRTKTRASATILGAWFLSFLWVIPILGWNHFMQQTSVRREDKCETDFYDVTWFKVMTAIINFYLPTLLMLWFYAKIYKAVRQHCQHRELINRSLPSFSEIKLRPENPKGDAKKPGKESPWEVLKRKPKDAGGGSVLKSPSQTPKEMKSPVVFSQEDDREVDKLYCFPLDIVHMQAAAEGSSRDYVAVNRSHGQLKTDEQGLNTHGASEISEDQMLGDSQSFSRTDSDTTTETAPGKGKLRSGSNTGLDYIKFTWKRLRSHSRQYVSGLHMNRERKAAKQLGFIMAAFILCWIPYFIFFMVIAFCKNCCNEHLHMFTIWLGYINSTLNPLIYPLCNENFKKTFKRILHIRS

Question: Which Ki (Histamine H4 receptor [1]) does the source give for `CN1CCN(c2nc(NCc3cncs3)c3cc(Cl)ccc3n2)CC1` here?
Answer: The Ki was 107 nM.

Question: With `CNc1nc(N2CCN(C)CC2)nc2ccc(Cl)cc12` as the compound, how does the Ki (Histamine H4 receptor [1]) read?
Answer: The Ki was 70.8 nM.

Question: How did the Ki (Histamine H4 receptor [1]) turn out when `CN1CCN(c2nc(NCc3cc4ccccc4s3)c3cc(Cl)ccc3n2)CC1` was run?
Answer: Its Ki is 269 nM.

Question: With `Cc1csc(CNc2nc(N3CCN(C)CC3)nc3ccc(Cl)cc23)c1` as the compound, how does the Ki (Histamine H4 receptor [1]) read?
Answer: The Ki was 38.9 nM.

Question: With `CNc1nc(N2CCC3(CCN(C)C3)C2)nc2ccc(Cl)cc12` (configuration not stated) as the compound, how does the Ki (Histamine H4 receptor [1]) read?
Answer: Its Ki is over 1000 nM.

Question: Which Ki (Histamine H4 receptor [1]) does the source give for `CN1CCN(c2nc(NCc3ccsc3)c3cc(Cl)ccc3n2)CC1` here?
Answer: The Ki was 35.5 nM.

Question: How did the Ki (Histamine H4 receptor [1]) turn out when `CN1CCN(c2nc(N)c3ccccc3n2)CC1` was run?
Answer: Its Ki is 2140 nM.

Question: How did the Ki (Histamine H4 receptor [1]) turn out when `CN1CCN(c2nc(NCc3ccco3)c3ccccc3n2)CC1` was run?
Answer: Its Ki is 603 nM.

Question: With `CNc1nc(N2CC[C@H](N)C2)nc2ccc(Cl)cc12` as the compound, how does the Ki (Histamine H4 receptor [1]) read?
Answer: The Ki was over 1000 nM.

Question: For `CN1CCN(c2nc(NCc3ccccc3)c3ccccc3n2)CC1`, which Ki (Histamine H4 receptor [1]) is on record?
Answer: The Ki was 1070 nM.

Question: With `CNc1nc(N2CCN(C)CC2)nc2cccc(C)c12` as the compound, how does the Ki (Histamine H4 receptor [1]) read?
Answer: Its Ki is 692 nM.

Question: For `CNc1nc(N2CC[C@@H](N)C2)nc2ccc(Cl)cc12`, which Ki (Histamine H4 receptor [1]) is on record?
Answer: The Ki was over 1000 nM.

Question: Which Ki (Histamine H4 receptor [1]) does the source give for `CNc1nc(N2CCN(C)CC2)nc2cc(Cl)ccc12` here?
Answer: The Ki was 955 nM.

Question: `CNc1nc(N2CCN3CCC[C@H]3C2)nc2ccc(Cl)cc12` was tested. Which Ki (Histamine H4 receptor [1]) did it give?
Answer: The Ki was 155 nM.

Question: What does the source list for `CN1CCN(c2nc(NCc3ccoc3)c3cc(Cl)ccc3n2)CC1`?
Answer: Ki (Histamine H4 receptor [1]): 26.9 nM; Ki (Histamine H1 receptor): 97.7 nM; Ki (Histamine H4 receptor [2]): 24.5 nM; IC50 (Histamine H4 receptor [3]): 145 nM

Question: Which Ki (Histamine H4 receptor [1]) does the source give for `CNc1nc(N2CC(C)N(C)C(C)C2)nc2ccc(Cl)cc12` (configuration not stated) here?
Answer: The Ki was over 1000 nM.

Question: For `CN1CCN(c2nc(NCc3ccco3)c3cc(F)ccc3n2)CC1`, which Ki (Histamine H4 receptor [1]) is on record?
Answer: Its Ki is 224 nM.

Question: `CNc1nc(N2CCCC2CN2CCN(C)CC2)nc2ccc(Cl)cc12` (configuration not stated) was tested. Which Ki (Histamine H4 receptor [1]) did it give?
Answer: Its Ki is over 1000 nM.

Question: `CCOC(=O)CNc1nc(N2CCN(C)CC2)nc2ccc(Cl)cc12` was tested. Which Ki (Histamine H4 receptor [1]) did it give?
Answer: The Ki was 955 nM.

Question: Which Ki (Histamine H4 receptor [1]) does the source give for `CNc1nc(N2CCCN(C)CC2)nc2ccc(Cl)cc12` here?
Answer: The Ki was over 1000 nM.

Question: How did the Ki (Histamine H4 receptor [1]) turn out when `CNc1nc(N2CC[C@H](NC)C2)nc2ccc(Cl)cc12` was run?
Answer: The Ki was over 1000 nM.

Question: With `Cc1noc(CNc2nc(N3CCN(C)CC3)nc3ccc(Cl)cc23)n1` as the compound, how does the Ki (Histamine H4 receptor [1]) read?
Answer: The Ki was 372 nM.

Question: How did the Ki (Histamine H4 receptor [1]) turn out when `CN1CCN(c2nc(Nc3ccccc3)c3ccccc3n2)CC1` was run?
Answer: The Ki was 8510 nM.

Question: For `CN1CCN(c2nc(Oc3ccccc3)c3ccccc3n2)CC1`, which Ki (Histamine H4 receptor [1]) is on record?
Answer: Its Ki is 2820 nM.

Question: With `CN1CCN(c2nc(NCCO)c3cc(Cl)ccc3n2)CC1` as the compound, how does the Ki (Histamine H4 receptor [1]) read?
Answer: Its Ki is 575 nM.

Question: For `CN1CCN(c2nc(O)c3cc(Cl)ccc3n2)CC1`, which Ki (Histamine H4 receptor [1]) is on record?
Answer: Its Ki is 15100 nM.

Question: `CN1CCN(c2nc(NCc3ccco3)c3cc(Cl)ccc3n2)CC1` was tested. Which Ki (Histamine H4 receptor [1]) did it give?
Answer: Its Ki is 89.1 nM.

Question: With `CNc1nc(N2C[C@H]3CNC[C@H]3C2)nc2ccc(Cl)cc12` as the compound, how does the Ki (Histamine H4 receptor [1]) read?
Answer: The Ki was over 1000 nM.

Question: Which Ki (Histamine H4 receptor [2]) does the source give for `CN1CCN(c2nc(NCc3cccs3)c3cc(Cl)ccc3n2)CC1` here?
Answer: Its Ki is 15.8 nM.

Question: `CN1CCN(c2nc(N(C)C)c3cc(Cl)ccc3n2)CC1` was tested. Which Ki (Histamine H4 receptor [1]) did it give?
Answer: The Ki was 617 nM.

Question: Which Ki (Histamine H4 receptor [1]) does the source give for `CNc1nc(N2CCN3CCCC3C2)nc2ccc(Cl)cc12` (configuration not stated) here?
Answer: The Ki was 141 nM.

Question: With `CN1CCN(c2nc(OCc3ccccc3)c3ccccc3n2)CC1` as the compound, how does the Ki (Histamine H4 receptor [1]) read?
Answer: The Ki was 4070 nM.

Question: For `CN1CCN(c2nc(NCCc3ccccc3)c3cc(Cl)ccc3n2)CC1`, which Ki (Histamine H4 receptor [1]) is on record?
Answer: Its Ki is 240 nM.

Question: With `COc1ccc(CNc2nc(N3CCN(C)CC3)nc3ccc(Cl)cc23)cc1` as the compound, how does the Ki (Histamine H4 receptor [1]) read?
Answer: Its Ki is 363 nM.

Question: How did the Ki (Histamine H4 receptor [1]) turn out when `CNc1nc(N2CCN(C)CC2C)nc2ccc(Cl)cc12` (configuration not stated) was run?
Answer: The Ki was over 1000 nM.

Question: For `CNc1nc(NCC2CCN(C)CC2)nc2ccc(Cl)cc12`, which Ki (Histamine H4 receptor [1]) is on record?
Answer: Its Ki is over 1000 nM.

Question: `Cc1ccsc1CNc1nc(N2CCN(C)CC2)nc2ccc(Cl)cc12` was tested. Which Ki (Histamine H4 receptor [1]) did it give?
Answer: The Ki was 33.9 nM.

Question: `CNc1nc(N2CCC3(CCN(C)CC3)CC2)nc2ccc(Cl)cc12` was tested. Which Ki (Histamine H4 receptor [1]) did it give?
Answer: Its Ki is over 1000 nM.

Question: How did the Ki (Histamine H4 receptor [1]) turn out when `CN1CCN(c2nc3ccc(Cl)cc3nc2OCc2ccccc2)CC1` was run?
Answer: The Ki was 269 nM.

Question: For `Cc1cc(Cl)cc2c(NCc3ccco3)nc(N3CCN(C)CC3)nc12`, which Ki (Histamine H4 receptor [1]) is on record?
Answer: The Ki was 186 nM.

Question: How did the Ki (Histamine H4 receptor [1]) turn out when `CNc1nc(NCCC2CCN(C)C2)nc2ccc(Cl)cc12` (configuration not stated) was run?
Answer: The Ki was over 1000 nM.

Question: How did the Ki (Histamine H4 receptor [1]) turn out when `CN1CCN(c2nc(NCCc3ccccc3)c3ccccc3n2)CC1` was run?
Answer: The Ki was 1480 nM.

Question: How did the Ki (Histamine H4 receptor [1]) turn out when `CN1CCN(c2nc(N)c3cc(Cl)ccc3n2)CC1` was run?
Answer: Its Ki is 105 nM.

Question: How did the Ki (Histamine H4 receptor [1]) turn out when `CNc1nc(N2CC3CCCNC3C2)nc2ccc(Cl)cc12` (configuration not stated) was run?
Answer: Its Ki is over 1000 nM.

Question: For `CN1CCN(c2nc(NCc3ccc(N)cc3)c3cc(Cl)ccc3n2)CC1`, which Ki (Histamine H4 receptor [1]) is on record?
Answer: The Ki was 562 nM.

Question: How did the Ki (Histamine H4 receptor [1]) turn out when `CN1CCN(c2nc(NCc3ccccc3)c3cc(Cl)ccc3n2)CC1` was run?
Answer: Its Ki is 257 nM.

Question: Which Ki (Histamine H4 receptor [1]) does the source give for `CN1CCN(c2nc(NCc3ccc(C#N)cc3)c3cc(Cl)ccc3n2)CC1` here?
Answer: Its Ki is 129 nM.

Question: How did the Ki (Histamine H4 receptor [1]) turn out when `CN1CCN(c2nc(NCc3nccs3)c3cc(Cl)ccc3n2)CC1` was run?
Answer: Its Ki is 105 nM.

Question: `CN1CCN(c2nc(NCc3ccc(F)cc3)c3cc(Cl)ccc3n2)CC1` was tested. Which Ki (Histamine H4 receptor [1]) did it give?
Answer: The Ki was 105 nM.

Question: `CC(C)Nc1nc(N2CCN(C)CC2)nc2ccc(Cl)cc12` was tested. Which Ki (Histamine H4 receptor [1]) did it give?
Answer: The Ki was 759 nM.

Question: How did the Ki (Histamine H4 receptor [1]) turn out when `CN1CCN(c2nc(NCC3CCCCC3)c3cc(Cl)ccc3n2)CC1` was run?
Answer: Its Ki is 589 nM.

Question: For `CN1CCN(c2nc(NCCc3cccs3)c3cc(Cl)ccc3n2)CC1`, which Ki (Histamine H4 receptor [1]) is on record?
Answer: Its Ki is 60.3 nM.

Question: How did the Ki (Histamine H4 receptor [1]) turn out when `Cc1ccc(CNc2nc(N3CCN(C)CC3)nc3ccc(Cl)cc23)o1` was run?
Answer: The Ki was 135 nM.

Question: How did the Ki (Histamine H4 receptor [1]) turn out when `CNc1nc(NCC2CCN(C)C2)nc2ccc(Cl)cc12` (configuration not stated) was run?
Answer: The Ki was over 1000 nM.
